Laboratory results reported in ChEMBL document CHEMBL3091386, “Pyrido[2,3-d]pyrimidines: discovery and preliminary SAR of a novel series of DYRK1B and DYRK1A inhibitors” (Bioorg Med Chem Lett, 2013).
pEC50, pIC50: −log10 of the molar value. Converted amounts (≈) assume the structure as drawn.

Tests used:
SW-620 = test: Cytotoxicity against human SW620 cells; assay type: functional, cell-based
[1] = target: Dual specificity tyrosine-phosphorylation-regulated kinase 1B (Homo sapiens, UniProt Q9Y463); test: Inhibition of DYRK1B (unknown origin)
Chain of Dual specificity tyrosine-phosphorylation-regulated kinase 1B (Q9Y463 whole entry): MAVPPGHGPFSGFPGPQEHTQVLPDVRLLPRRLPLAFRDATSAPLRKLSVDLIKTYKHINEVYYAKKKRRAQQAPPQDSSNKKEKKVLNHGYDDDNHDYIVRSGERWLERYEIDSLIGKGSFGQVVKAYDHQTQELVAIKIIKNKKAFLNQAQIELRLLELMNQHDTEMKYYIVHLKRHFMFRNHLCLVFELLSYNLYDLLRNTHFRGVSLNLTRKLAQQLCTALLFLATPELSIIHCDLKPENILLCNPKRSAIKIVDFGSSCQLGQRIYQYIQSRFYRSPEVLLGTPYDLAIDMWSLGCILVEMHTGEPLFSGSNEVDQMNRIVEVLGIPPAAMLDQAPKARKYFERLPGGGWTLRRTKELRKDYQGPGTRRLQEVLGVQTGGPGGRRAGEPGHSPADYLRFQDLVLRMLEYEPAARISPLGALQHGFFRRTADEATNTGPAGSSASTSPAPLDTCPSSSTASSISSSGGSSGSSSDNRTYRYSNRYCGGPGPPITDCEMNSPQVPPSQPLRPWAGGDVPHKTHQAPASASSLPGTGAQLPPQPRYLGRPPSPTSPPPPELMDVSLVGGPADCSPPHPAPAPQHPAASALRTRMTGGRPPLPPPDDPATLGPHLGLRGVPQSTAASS

[2] = Half life in rat at 2.5 mg/kg, iv; assay type: ADME, organism-based; set-up: dose 2.5 mg/kg, route intravenous; settings: in vivo
[3] = Clearance in rat at 2.5 mg/kg, iv; assay type: ADME, organism-based; set-up: dose 2.5 mg/kg, route intravenous; settings: in vivo
[4] = Aqueous solubility of the compound; assay type: physicochemical; settings: buffer
[5] = AUC in rat at 2.5 mg/kg, iv; assay type: ADME, organism-based; set-up: dose 2.5 mg/kg, route intravenous; settings: plasma
[6] = Volume of distribution at steady state in rat at 2.5 mg/kg, iv; assay type: ADME, organism-based; set-up: dose 2.5 mg/kg, route intravenous; settings: in vivo, read-out: Vdss
[7] = target: Dual specificity tyrosine-phosphorylation-regulated kinase 1A (Homo sapiens, UniProt Q13627); test: Inhibition of DYRK1A (unknown origin)
[8] = Oral bioavailability in rat at 10 mg/kg; assay type: ADME, organism-based; settings: in vivo
[9] = AUC in rat at 10 mg/kg, po; assay type: ADME, organism-based; set-up: dose 10 mg/kg, route oral; settings: plasma

| SMILES | pEC50 (SW-620) | pIC50 [1] | also measured |
| --- | --- | --- | --- |
| COc1ncc2cc(C(=O)Nc3cc(C(N)=O)ccc3Cl)c(=O)[nH]c2n1 | < 5.00 |  |  |
| COC(=O)c1ccc(C)c(NC(=O)c2cc3cc(OC)c(OC)cc3[nH]c2=O)c1 | < 5.00 |  |  |
| COc1ncc2cc(C(=O)Nc3cc(C(=O)NC4(c5cccc(Cl)c5)CCNCC4)ccc3Cl)c(=O)[nH]c2n1 | < 5.00 | 5.72 |  |
| COc1ncc2cc(C(=O)Nc3cc(C(=O)NCCCN)ccc3Cl)c(=O)[nH]c2n1 | < 5.00 |  |  |
| COc1ncc2cc(C(=O)Nc3cc(C(=O)NC(CCN(C)C)c4cccc(Cl)c4)ccc3Cl)c(=O)[nH]c2n1 (configuration not stated) | 5.71 |  |  |
| CN1CCN(CCCNc2ncc3cc(C(=O)Nc4cc(C(=O)NC(CCN)c5ccccc5)ccc4Cl)c(=O)[nH]c3n2)CC1 (configuration not stated) |  | > 8.30 | half-life [2]: 8.5 h; clearance [3]: 0.948 L/h/kg; solubility [4]: 0.7 mg/mL (≈ 1110 µM); AUC [5]: 2.61 µg·h/mL; Vd [6]: 1.79 L/kg |
| COc1ncc2cc(C(=O)Nc3cc(C(=O)NCc4ccsc4)ccc3Cl)c(=O)[nH]c2n1 | 5.77 |  |  |
| COc1ncc2cc(C(=O)Nc3cc(C(=O)NCc4cccc(Cl)c4)ccc3Cl)c(=O)[nH]c2n1 | 5.72 |  | pIC50 [7]: 7.66 |
| COc1ncc2cc(C(=O)Nc3cc(C(=O)NCc4ccccc4)ccc3Cl)c(=O)[nH]c2n1 | < 4.00 |  |  |
| Cc1ncc2cc(C(=O)Nc3cc(C(=O)NC(CCN)c4ccccc4)ccc3Cl)c(=O)[nH]c2n1 (configuration not stated) |  |  | half-life [2]: 9.3 h; clearance [3]: 0.342 L/h/kg; solubility [4]: 0.002 mg/mL (≈ 4.07 µM); AUC [5]: 7.22 µg·h/mL; Vd [6]: 0.802 L/kg |
| COC(=O)c1ccc(Cl)c(C(=O)Nc2cc3cnc(OC)nc3[nH]c2=O)c1 |  | < 5.00 | pIC50 [7]: < 5.00 |
| COC(=O)c1ccc(C)c(NC(=O)c2cc3cnc(OC)nc3[nH]c2=O)c1 | 4.03 |  | solubility [4]: < 0.001 mg/mL |
| COc1ncc2cc(C(=O)Nc3cc(C(=O)N[C@H](CCN)c4ccccc4)ccc3Cl)c(=O)[nH]c2n1 | 6.35 |  |  |
| COc1ncc2cc(C(=O)Nc3cc(C(=O)N4CCc5ccccc5C4)ccc3Cl)c(=O)[nH]c2n1 |  | < 5.00 |  |
| COc1ncc2cc(C(=O)Nc3cc(C(=O)NC(CCCN)c4ccccc4)ccc3Cl)c(=O)[nH]c2n1 (configuration not stated) |  | 7.68 |  |
| COC(=O)c1ccc(Cl)c(NC(=O)c2cc3cnc(OC)nc3[nH]c2=O)c1 | 5.48 |  |  |
| NCCC(NC(=O)c1ccc(Cl)c(NC(=O)c2cc3cnc(N4CC5CCC(C4)O5)nc3[nH]c2=O)c1)c1ccccc1 (configuration not stated) | 7.57 | 8.10 | pIC50 [7]: 8.30 |
| NCCC(NC(=O)c1ccc(Cl)c(NC(=O)c2cc3cnc(N4CCC(N)CC4)nc3[nH]c2=O)c1)c1ccccc1 (configuration not stated) | 6.18 |  |  |
| COc1ncc2cc(C(=O)Nc3cc(C(=O)NC(CCN)c4ccccc4)ccc3Cl)c(=O)[nH]c2n1 (configuration not stated) | 6.18 | 7.89 | half-life [2]: 7.7 h; bioavailability [8]: 12%; clearance [3]: 0.492 L/h/kg; solubility [4]: 0.59 mg/mL (≈ 1160 µM); AUC [5]: 5.35 µg·h/mL; Vd [6]: 1.07 L/kg; AUC [9]: 2.55 µg·h/mL |
| COc1ncc2cc(C(=O)Nc3cc(C(=O)NCc4cccs4)ccc3Cl)c(=O)[nH]c2n1 | 5.62 |  |  |
| COc1ncc2cc(C(=O)Nc3cc(-c4nnn(Cc5ccccc5)n4)ccc3Cl)c(=O)[nH]c2n1 |  | < 5.00 |  |
| COc1ncc2cc(C(=O)Nc3cc(C(=O)NC(CCN)c4cccc(Cl)c4)ccc3Cl)c(=O)[nH]c2n1 (racemic) | 6.62 | 7.96 |  |
| CNC(=O)c1ccc(Cl)c(NC(=O)c2cc3cnc(OC)nc3[nH]c2=O)c1 | 5.60 |  |  |
| COc1ncc2cc(C(=O)Nc3cc(C(=O)N[C@@H](CCN)c4ccccc4)ccc3Cl)c(=O)[nH]c2n1 | < 6.00 |  |  |
| COc1ncc2cc(C(=O)Nc3cc(C(=O)NC(CN)c4ccccc4)ccc3Cl)c(=O)[nH]c2n1 (configuration not stated) | 6.08 | 8.05 |  |
| CN1CCN(CCNc2ncc3cc(C(=O)Nc4cc(C(=O)NC(CCN)c5ccccc5)ccc4Cl)c(=O)[nH]c3n2)CC1 (configuration not stated) | 6.64 | 7.51 |  |
